Converted amounts (≈) assume the structure as drawn.

These results are taken from ChEMBL document CHEMBL1155525, “Substituted 2H-isoquinolin-1-one as potent Rho-Kinase inhibitors. Part 1: Hit-to-lead account” (Bioorg Med Chem Lett, 2010).

A short description of data set [1]: Solubility at pH 7.4. Format: physicochemical. As to conditions: buffer.
Data set [2] is described as follows: in vitro. To be noted: rat, liver microsomes. In general terms: Microsomes from liver hold many membrane-bound enzymes, among them those of drug oxidation.
The nature of data set [3]: in vivo. As to conditions: rat, iv, 1 mg/kg.
A short description of data set [4]: Oral bioavailability in rat at 10 mg/kg. It counts as ADME, organism-based. To be noted: in vivo.
Data set [5] can be described thus: in vitro. To be noted: human, liver microsomes.
Data set [6] is described as follows: in vivo. As to conditions: rat, plasma.
Data set [7] is described as follows: in vivo. To be noted: rat.

In general, solubility refers to the dissolved amount per volume that the medium holds. A higher solubility goes with a readily soluble substance. A word on the half-life: it is how long it takes for the measured level to halve. Higher therefore signals slow loss. What is called clearance is the rate of elimination divided by the concentration. High values mean a high capacity for elimination, low ones a low capacity for elimination. The term bioavailability denotes the share of a dose that reaches the circulation, judged against a reference dose that is usually intravenous. By AUC is commonly meant concentration integrated over time. A low value points to low exposure. In data set [1], `O=C(Nc1cc2cc[nH]c(=O)c2cc1Cl)C(NC1CC1)c1ccccc1` (stereo not drawn) had a solubility of 16 µg/mL (≈ 43.5 µM). Also, the half-life in data set [2] was 7 min; in data set [5], 21 min; in data set [6] it was 162 min. Besides, in data set [3], the clearance is 82 mL/min/kg. The bioavailability in data set [4] was 64%. In addition, the AUC in data set [7] stood at 1290 ng·h/mL.
Molecule `CN(C)C(C(=O)Nc1cc2cc[nH]c(=O)c2cc1Cl)c1ccccc1` (stereo not drawn) yielded a solubility in data set [1] of 6 µg/mL (≈ 16.9 µM). For the same molecule, the bioavailability in data set [4] amounted to 2%. The same molecule yielded an AUC in data set [7] of 30 ng·h/mL.
For `C[C@@H](N)[C@H]1CC[C@H](C(=O)Nc2ccncc2)CC1.Cl.Cl`, the solubility in data set [1] is > 32 µg/mL. Further, the half-life in data set [5] is > 90 min.
`O=S(=O)(c1cccc2cnccc12)N1CCCNCC1` [FASUDIL]: in data set [1], the solubility was > 60 µg/mL.
